Measured values reported in patent publication US20260276656A1, “GUT MICROBIOTA-RELATED METHODS FOR TREATING DEMENTIA AND AGE-DEPENDENT COGNITIVE DECLINE” (Albert-Ludwigs-Universitat Freiburg, priority 2019, published 2026).
“Also recorded” adds a separate entry of the source.

System: Layer 2/3 pyramidal cells of the infralimbic or prelimbic mPFC
Assay: Whole-cell patch-clamp recordings of spontaneous EPSCs and IPSCs in acute prefrontal brain slices
Assay type: cell-based, mouse
Conditions: pre-incubation with 10 μM
Method: Mice were injected intraperitoneally with ketamine/xylazine (100/13 mg/kg body weight) and intracardially perfused with ice-cold solution containing (in mM) NaCl 87, NaHCO325, KCl 2.5, NaH2PO4 1.25, glucose 10, sucrose 75, CaCl2 0.5 and MgCl2 7 (aerated with 95% O2/5% CO2). 300 μm thick frontal sections of the PFC were prepared with a vibratome and stored in artificial cerebrospinal fluid (ACSF) containing in mM: NaCl 125, NaHCO3 25, KCl 2.5, NaH2PO4 1.25, Glucose 25, CaCl2 2 and MgCl2 1 (equillibrated with 95% O2/5% CO2) first at 34° C. for 30 min, then at room temperature. Patch-clamp recordings were targeted to pyramidal neurons identified by their characteristic soma shape using pipettes pulled from borosilicate glass tubing and filled with a Cs-based pipette solution containing (in mM): CsCl 20, MgCl2 2, Na2ATP 2, QX-314 1, Hepes 10, TEACl 8, Cs-Gluconate 110. Recordings were performed at 30 to 34° C. using an Axopatch Multiclamp amplifier in voltage clamp mode. To isolate spontaneous excitatory postsynaptic currents (EPSCs), the resting membrane potential was held at −70 mV (the reversal potential of inhibitory postsynaptic currents (IPSCs). To record spontaneous IPSCs, the cell was held at 0 mV (the reversal potential of EPSCs). Both IPSCs and EPSCs were recorded from the same neurons in slices pre-incubated in 10 μM 6-valerobetaine or in control slices kept in ACSF. Spontaneous events were identified visually from lowpass-filtered data (<1 kHz). Amplitudes were measured from average events.

## C[N+](C)(C)CCCCC(=O)[O-] [NNN-trimethyl-5-aminovalerate, 5-(trimethylammonio) pentanoate]
  amplitude of spontaneous EPSCs: unaltered; also recorded: no significant effect
  amplitude of spontaneous IPSCs: not the amplitude; also recorded: no significant effect
  frequency of spontaneous EPSCs: unaltered
  frequency of spontaneous IPSCs: increased
